Laboratory results: PMC6138237, “Machine intelligence decrypts β-lapachone as an allosteric 5-lipoxygenase inhibitor” (Chemical Science, 2018)
Where two headings read alike, the source gives them in different places.

Experiments:
TRPV1 = TRPV1 (Homo sapiens, UniProt Q8NER1); assay: TRPV1 functional antagonist assay, Cerep (capsaicin 30 nM); type: cell-based
TRPM8 = biological target: T1, TRPM8 (Homo sapiens, UniProt Q7Z2W7); assay: TRPM8 functional agonist assay, Cerep (intracellular Ca2+); type: cell-based; conditions: TRPM8 (agonist), 150 µM
T1 construct: Cerep, SA (fee-for-service assay) printed G018533 (citation number 33 glued on)
T1 sequence (Q7Z2W7 whole entry): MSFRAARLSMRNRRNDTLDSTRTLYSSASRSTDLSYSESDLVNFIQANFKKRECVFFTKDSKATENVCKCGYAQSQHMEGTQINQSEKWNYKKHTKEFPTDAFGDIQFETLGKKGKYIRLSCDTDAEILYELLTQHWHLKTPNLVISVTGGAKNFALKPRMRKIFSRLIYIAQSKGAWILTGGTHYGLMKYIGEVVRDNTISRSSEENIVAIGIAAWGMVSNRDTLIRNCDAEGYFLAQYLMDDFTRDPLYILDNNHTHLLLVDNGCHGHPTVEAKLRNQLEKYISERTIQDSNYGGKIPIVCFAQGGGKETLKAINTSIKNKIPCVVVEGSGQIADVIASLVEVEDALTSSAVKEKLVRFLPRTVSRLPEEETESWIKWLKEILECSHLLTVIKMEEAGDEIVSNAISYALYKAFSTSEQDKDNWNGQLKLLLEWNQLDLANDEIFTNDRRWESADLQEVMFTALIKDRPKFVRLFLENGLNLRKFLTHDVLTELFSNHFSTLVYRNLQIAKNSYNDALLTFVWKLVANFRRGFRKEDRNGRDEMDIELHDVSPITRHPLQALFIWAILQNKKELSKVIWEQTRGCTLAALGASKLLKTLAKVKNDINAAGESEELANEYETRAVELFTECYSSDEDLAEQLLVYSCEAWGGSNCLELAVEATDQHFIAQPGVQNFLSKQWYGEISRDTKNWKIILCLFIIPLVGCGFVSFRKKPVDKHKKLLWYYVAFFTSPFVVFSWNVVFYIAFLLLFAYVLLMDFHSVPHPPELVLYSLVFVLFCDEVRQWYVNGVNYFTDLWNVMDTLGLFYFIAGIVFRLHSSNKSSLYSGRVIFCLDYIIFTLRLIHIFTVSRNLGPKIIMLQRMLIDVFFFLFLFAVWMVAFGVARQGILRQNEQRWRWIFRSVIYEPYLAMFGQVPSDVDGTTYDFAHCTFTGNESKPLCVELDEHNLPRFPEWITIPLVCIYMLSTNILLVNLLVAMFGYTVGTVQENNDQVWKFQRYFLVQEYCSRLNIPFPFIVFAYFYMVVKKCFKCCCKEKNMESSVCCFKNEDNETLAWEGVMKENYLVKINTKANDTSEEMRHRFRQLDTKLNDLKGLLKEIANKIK

TRKA = TRKA (Homo sapiens, UniProt P04629); assay: ExpresS Diversity Kinase Profile, Cerep (LANCE): TRKA; type: biochemical
Sequence of TRKA (P04629 33-796): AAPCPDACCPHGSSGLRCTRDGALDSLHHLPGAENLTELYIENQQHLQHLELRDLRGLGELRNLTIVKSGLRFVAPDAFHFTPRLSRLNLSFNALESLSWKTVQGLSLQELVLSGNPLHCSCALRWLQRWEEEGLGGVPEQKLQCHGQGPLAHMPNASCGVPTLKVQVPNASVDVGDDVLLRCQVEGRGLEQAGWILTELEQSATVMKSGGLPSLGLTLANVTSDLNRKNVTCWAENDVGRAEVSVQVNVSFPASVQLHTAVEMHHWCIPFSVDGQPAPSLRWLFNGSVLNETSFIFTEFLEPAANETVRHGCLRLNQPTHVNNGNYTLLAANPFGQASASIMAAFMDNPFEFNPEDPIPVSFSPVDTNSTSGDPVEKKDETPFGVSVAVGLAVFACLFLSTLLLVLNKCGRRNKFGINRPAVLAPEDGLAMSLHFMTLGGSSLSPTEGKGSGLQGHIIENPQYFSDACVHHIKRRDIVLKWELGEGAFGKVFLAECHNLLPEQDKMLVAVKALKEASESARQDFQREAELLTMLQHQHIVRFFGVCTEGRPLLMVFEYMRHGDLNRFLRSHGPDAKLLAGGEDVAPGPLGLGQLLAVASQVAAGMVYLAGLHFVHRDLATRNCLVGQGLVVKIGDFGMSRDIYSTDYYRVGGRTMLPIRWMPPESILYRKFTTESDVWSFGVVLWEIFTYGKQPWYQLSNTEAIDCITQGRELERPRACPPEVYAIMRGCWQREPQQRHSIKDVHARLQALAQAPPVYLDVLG

5-LO = biological target: T2, 5-LO (Homo sapiens, UniProt P09917); assay: 5-LO inhibition assay, Cerep (Method A, indirect fluorogenic readout, Rhodamine 123); type: biochemical
T2 sequence (P09917 1-674): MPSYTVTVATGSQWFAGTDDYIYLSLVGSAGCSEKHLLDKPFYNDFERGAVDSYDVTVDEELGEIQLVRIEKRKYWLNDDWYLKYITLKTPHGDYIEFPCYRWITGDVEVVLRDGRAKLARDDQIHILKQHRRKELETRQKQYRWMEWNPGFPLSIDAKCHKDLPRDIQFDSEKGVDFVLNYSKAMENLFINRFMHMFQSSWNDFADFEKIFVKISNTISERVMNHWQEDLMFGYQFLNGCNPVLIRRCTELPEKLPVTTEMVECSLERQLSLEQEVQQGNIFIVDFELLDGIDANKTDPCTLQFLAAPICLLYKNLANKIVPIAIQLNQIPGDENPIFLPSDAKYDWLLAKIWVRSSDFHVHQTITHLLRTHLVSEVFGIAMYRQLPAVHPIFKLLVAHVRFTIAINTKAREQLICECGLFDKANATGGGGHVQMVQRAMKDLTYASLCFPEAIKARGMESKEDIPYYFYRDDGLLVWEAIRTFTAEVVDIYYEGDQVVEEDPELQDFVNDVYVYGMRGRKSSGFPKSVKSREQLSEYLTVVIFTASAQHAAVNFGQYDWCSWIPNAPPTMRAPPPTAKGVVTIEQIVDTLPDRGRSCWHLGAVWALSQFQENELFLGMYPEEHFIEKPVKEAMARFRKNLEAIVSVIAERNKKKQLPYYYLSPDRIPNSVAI

FGFR3 = FGFR3 (Homo sapiens, UniProt P22607); assay: ExpresS Diversity Kinase Profile, Cerep (LANCE): FGFR3; type: biochemical
Sequence of FGFR3 (P22607 23-806): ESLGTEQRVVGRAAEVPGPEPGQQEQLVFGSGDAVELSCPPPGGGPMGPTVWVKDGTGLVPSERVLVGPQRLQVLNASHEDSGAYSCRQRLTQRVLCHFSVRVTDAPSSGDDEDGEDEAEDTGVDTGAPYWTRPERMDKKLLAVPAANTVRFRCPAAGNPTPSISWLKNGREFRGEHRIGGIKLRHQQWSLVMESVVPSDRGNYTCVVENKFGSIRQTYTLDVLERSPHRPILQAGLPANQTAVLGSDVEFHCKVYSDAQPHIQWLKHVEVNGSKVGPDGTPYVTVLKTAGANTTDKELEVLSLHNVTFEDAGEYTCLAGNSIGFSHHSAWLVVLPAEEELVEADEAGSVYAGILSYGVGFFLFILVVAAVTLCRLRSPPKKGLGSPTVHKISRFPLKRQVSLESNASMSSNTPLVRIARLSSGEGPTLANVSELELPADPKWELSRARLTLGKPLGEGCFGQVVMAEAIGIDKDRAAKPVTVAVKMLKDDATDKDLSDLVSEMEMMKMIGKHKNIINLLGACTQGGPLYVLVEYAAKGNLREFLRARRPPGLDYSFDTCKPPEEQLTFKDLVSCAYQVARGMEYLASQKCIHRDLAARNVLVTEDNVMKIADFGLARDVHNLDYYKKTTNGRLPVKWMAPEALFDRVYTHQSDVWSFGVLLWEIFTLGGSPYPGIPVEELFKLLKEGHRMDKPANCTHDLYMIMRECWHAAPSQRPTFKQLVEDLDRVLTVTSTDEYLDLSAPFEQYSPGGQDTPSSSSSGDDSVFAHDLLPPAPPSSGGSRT

IKKα = biological target: T3, IKKα (Homo sapiens, UniProt O15111); assay: ExpresS Diversity Kinase Profile, Cerep (LANCE): IKKα; type: biochemical
T3 sequence (O15111 1-745): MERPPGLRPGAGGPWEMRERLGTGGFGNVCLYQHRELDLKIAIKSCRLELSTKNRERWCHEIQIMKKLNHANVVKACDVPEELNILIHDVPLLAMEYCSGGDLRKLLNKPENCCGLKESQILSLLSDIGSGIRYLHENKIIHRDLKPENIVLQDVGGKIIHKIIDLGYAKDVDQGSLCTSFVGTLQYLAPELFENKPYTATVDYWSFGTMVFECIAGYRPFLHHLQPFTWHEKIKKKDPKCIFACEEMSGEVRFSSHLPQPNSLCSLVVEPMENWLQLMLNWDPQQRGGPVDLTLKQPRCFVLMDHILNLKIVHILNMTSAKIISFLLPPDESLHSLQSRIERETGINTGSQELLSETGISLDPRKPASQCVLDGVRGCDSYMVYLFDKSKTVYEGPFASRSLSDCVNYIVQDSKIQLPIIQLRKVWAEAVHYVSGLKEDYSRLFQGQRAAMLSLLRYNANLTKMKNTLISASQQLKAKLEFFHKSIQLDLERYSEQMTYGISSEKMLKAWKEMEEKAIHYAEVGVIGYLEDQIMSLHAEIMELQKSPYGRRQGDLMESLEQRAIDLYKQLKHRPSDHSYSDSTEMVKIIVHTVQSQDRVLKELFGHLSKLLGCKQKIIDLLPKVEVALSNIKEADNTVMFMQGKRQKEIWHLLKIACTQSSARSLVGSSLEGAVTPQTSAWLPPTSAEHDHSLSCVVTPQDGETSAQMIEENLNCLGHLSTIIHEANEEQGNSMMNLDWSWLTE

SIK = SIK (Homo sapiens, UniProt P57059); assay: ExpresS Diversity Kinase Profile, Cerep (LANCE): SIK; type: biochemical; conditions: 150 µM
Sequence of SIK (P57059 whole entry): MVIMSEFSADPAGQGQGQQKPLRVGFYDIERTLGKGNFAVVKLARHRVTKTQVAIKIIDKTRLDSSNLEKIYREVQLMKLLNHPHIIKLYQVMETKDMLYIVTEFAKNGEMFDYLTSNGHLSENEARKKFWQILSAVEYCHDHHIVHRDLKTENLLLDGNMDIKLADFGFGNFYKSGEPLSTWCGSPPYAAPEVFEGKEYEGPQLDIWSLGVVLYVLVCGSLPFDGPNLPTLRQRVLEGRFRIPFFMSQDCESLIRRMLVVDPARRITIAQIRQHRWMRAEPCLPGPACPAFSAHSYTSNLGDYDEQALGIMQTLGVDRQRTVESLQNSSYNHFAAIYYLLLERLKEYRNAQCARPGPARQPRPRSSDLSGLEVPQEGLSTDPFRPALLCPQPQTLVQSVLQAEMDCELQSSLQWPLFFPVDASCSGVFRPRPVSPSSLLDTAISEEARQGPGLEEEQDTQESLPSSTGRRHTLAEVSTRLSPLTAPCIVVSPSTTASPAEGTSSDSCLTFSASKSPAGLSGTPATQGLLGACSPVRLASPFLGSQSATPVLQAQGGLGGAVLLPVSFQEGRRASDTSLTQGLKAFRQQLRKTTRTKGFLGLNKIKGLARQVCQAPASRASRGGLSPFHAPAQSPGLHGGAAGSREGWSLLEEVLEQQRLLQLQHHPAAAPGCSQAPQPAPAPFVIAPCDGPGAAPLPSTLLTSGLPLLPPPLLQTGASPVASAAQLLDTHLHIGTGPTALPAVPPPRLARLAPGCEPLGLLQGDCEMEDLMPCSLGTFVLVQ

FGFR2 = FGFR2 (Homo sapiens, UniProt P21802); assay: ExpresS Diversity Kinase Profile, Cerep (LANCE): FGFR2; type: biochemical
Sequence of FGFR2 (P21802 22-821): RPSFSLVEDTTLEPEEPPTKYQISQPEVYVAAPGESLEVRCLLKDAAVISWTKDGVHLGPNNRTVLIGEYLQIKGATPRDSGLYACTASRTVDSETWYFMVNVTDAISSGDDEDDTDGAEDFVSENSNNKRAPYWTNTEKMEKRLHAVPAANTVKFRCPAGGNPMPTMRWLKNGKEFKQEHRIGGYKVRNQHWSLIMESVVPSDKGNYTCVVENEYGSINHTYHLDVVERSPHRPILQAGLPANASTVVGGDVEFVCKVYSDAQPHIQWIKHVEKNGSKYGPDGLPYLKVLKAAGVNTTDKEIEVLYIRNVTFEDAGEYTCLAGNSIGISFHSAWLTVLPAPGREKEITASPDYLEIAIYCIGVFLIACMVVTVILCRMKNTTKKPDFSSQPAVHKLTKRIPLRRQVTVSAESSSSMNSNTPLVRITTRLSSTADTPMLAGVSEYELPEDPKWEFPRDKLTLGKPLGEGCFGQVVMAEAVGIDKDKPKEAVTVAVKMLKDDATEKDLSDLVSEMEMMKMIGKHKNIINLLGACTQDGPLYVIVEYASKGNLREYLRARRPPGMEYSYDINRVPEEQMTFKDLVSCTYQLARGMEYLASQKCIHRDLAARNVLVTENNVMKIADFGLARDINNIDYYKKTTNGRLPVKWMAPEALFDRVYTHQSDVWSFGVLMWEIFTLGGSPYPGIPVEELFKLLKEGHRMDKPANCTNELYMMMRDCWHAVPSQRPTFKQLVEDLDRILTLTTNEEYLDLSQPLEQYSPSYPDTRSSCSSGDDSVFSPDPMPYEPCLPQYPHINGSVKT

MAPKAPK2 = MAPKAPK2 (Homo sapiens, UniProt P49137); assay: ExpresS Diversity Kinase Profile, Cerep (LANCE): MAPKAPK2; type: biochemical
Sequence of MAPKAPK2 (P49137 whole entry): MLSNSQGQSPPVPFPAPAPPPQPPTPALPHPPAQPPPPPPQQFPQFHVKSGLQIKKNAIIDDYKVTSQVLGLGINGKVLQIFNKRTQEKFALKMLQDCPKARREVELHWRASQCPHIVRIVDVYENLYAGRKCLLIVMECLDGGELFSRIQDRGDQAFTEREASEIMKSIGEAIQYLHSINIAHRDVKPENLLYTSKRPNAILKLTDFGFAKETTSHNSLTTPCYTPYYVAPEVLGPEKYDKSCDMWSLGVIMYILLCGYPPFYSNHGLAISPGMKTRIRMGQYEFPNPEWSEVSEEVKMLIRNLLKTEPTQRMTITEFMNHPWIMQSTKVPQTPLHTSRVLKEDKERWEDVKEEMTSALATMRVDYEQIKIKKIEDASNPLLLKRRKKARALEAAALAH

EP1 = biological target: T4, EP1 (Homo sapiens, UniProt P34995); assay: EP1 functional agonist assay, Cerep (intracellular Ca2+)
T4 sequence (P34995 1-402): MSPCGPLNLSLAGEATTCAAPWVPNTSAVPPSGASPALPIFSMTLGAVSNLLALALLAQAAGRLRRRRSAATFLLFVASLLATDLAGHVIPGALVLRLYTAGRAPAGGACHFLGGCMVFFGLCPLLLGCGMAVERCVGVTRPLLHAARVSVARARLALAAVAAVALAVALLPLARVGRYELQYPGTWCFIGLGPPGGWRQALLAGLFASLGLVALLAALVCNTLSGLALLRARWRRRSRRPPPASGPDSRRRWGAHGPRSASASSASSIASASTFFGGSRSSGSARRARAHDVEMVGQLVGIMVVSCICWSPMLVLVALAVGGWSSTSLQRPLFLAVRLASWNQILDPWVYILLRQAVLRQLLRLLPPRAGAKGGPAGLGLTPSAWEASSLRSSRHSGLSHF

[1] = read-out: % of control values, 1st measurement
[2] = read-out: % of control values, 2nd measurement
[3] = Flag: Interference, read-out: % Inhibition of control values, 1st measurement
[4] = Flag: Interference, read-out: % Inhibition of control values, 2nd measurement
[5] = n = 2, Flag: Interference, read-out: % Inhibition of control values, Mean

## CC1(C)CCC2=C(O1)c1ccccc1C(=O)C2=O [β-Lapachone]
TRPV1
  IC50: ~100000 nM
TRPM8; n = 2, read-out: % of control values, Mean
  remaining activity at 150 µM: -20.4%
TRPM8; [1]
  remaining activity at 150 µM: -20.4%
TRPM8; [2]
  remaining activity at 150 µM: -20.4%
TRKA; [3]
  inhibition at 150 µM: 38.1%
TRKA; [4]
  inhibition at 150 µM: 45.7%
TRKA; [5]
  inhibition at 150 µM: 41.9%
5-LO; 5-LO
  ligand efficiency (LE): 0.44
5-LO; 5-LO, n = 2, read-out: % inhibition of control values, Mean
  inhibition at 5 µM: 102%
5-LO; 5-LO, read-out: % inhibition of control values, 1st measure
  inhibition at 5 µM: 103%
5-LO; 5-LO, read-out: % inhibition of control values, 2nd measure
  inhibition at 5 µM: 99.8%
5-LO; 5-LO, 150 µM, read-out: % inhibition of control values, 1st measure
  inhibition at 150 µM: 98.4%
5-LO; 5-LO, 150 µM, read-out: % inhibition of control values, 2nd measure
  inhibition at 150 µM: 92.9%
5-LO; 5-LO, indirect fluorogenic readout, read-out: Experimental –log(IC50 or KD) (converted)
  IC50: 2510 nM
5-LO; 5-LO, listed as 1
  ligand efficiency (LE): > 0.30
5-LO; IC50, 5-LO, indirect fluorescence detection (Cerep), n = 2
  IC50: 2100 nM
5-LO; read-out: % inhibition of control values, Mean
  inhibition at 150 µM: 95.7%
FGFR3; [3]
  inhibition at 150 µM: 76.5%
FGFR3; [4]
  inhibition at 150 µM: 85.1%
FGFR3; [5]
  inhibition at 150 µM: 80.8%
IKKα; [3]
  inhibition at 150 µM: 59.5%
IKKα; [4]
  inhibition at 150 µM: 59.4%
IKKα; [5]
  inhibition at 150 µM: 59.5%
SIK; [3]
  inhibition at 150 µM: 41.8%
SIK; [4]
  inhibition at 150 µM: 40.3%
SIK; [5]
  inhibition at 150 µM: 41%
FGFR2; [3]
  inhibition at 150 µM: 44.8%
FGFR2; [4]
  inhibition at 150 µM: 55.2%
FGFR2; [5]
  inhibition at 150 µM: 50%
MAPKAPK2; [3]
  inhibition at 150 µM: -14.5%
MAPKAPK2; [4]
  inhibition at 150 µM: -2.7%
MAPKAPK2; [5]
  inhibition at 150 µM: -8.6%
EP1; [1]
  remaining activity at 150 µM: -11.9%
EP1; [2]
  remaining activity at 150 µM: -11.9%
EP1; read-out: % of control values, Mean
  remaining activity at 150 µM: -11.9%
